Key:
Type in all cases: cell-based, human
Du-145 cells = test: MTT cytotoxicity assay, Du-145
Description: Moreover, to investigate the activity of synthesized complexes as potential anticancer agents, their cytotoxicity toward a series of human cancer cell lines and a non-cancer cell line (HaCaT) was evaluated using the MTT assay. […] In addition, we also determined the cytotoxic activity of free ligands toward selected cancer cells. […] However, this effect depends on the cell line. […] The best values of cytotoxic activity of compounds have been obtained after 72 h of cell incubation. Additionally, synthesized complexes had high sensitivity to A549 cells, so this cell line was selected as the research subject for antitumor activity.
MCF7 cell line (human breast adenocarcinoma, morphology: epithelial-like, ATCC: HTB-22) and A549 cell line (human lung adenocarcinoma, morphology: epithelial, ATCC: CCL-185); HaCaT (human keratinocyte) were cultured in Dulbecco’s Modified Eagle’s Medium (DMEM, Corning, Poland) with phenol red, supplemented with 10% fetal bovine serum (FBS) and with 1% streptomycin/penicillin. Du-145 cell line (human prostate carcinoma); derived from metastatic site: brain was cultured in minimum essential medium (MEM, Corning) with only 10% fetal bovine serum (FBS). Cultures were incubated at 37 °C under a humidified atmosphere containing 5% CO2. Cells were passaged using a solution containing 0.05% trypsin and 0.5 mM EDTA. All media and other ingredients were purchased from ALAB, Poland.
Since most of the studied compounds are insoluble in aqueous media (Dulbecco’s Modified Eagle’s Medium or minimum essential medium (MEM, Corning), therefore, they needed to be pre-dissolved in DMSO for biological tests. DMSO concentration was kept below 1% in each tested concentration of each compound. […] In brief, 5×10^3 per well (0.2 mL) in the two first approaches, while 1×10^4 cells in the case of longer incubation time were seeded in 96-well flat-bottom microtiter plate, were incubated with the tested complexes at various ranges of concentrations. […] Various compound concentrations (dilutions in proper medium supplemented with 1% FBS) were tested in five replicates and repeated at least three times. Determined values of IC50 (concentration of a drug required to inhibit the growth of 50% of the cells) are given as mean + S.D. (Standard Deviation). IC50 values were determined, from the plots of cell viability in the presence of various concentrations of each compound by matching dose–response curves and using the Origin 9.0 software. Furthermore, post-treatment survival assessment of the treated cells was analyzed under an inverted fluorescence microscope (Olympus IC51, Japan) with an excitation filter 470/20 nm. For this, cells were stained with two versatile fluorescence dyes: fluorescein diacetate (FDA, 5 mg/mL) and propidium iodide (PI, 5 mg/mL) in standard conditions in the dark for 20 min. Before visualization, dyes were removed and cells were washed with PBS twice.

A549 cells [1] = test: Annexin V-FITC/PI double staining, flow cytometry; conditions: A549, 50 μM, 24 h
Description: The cell death induced by selected Ir(III) and Ru(II) complexes was assessed using Annexin V-FITC/PI double staining. Based on this assay the differentiation of the following cells population was possible: viable cells (Annexin-FITC negative, PI negative), apoptotic cells (Annexin-FITC positive, PI negative), late apoptotic cells (Annexin-FITC positive and PI positive), and necrotic cells (Annexin-FITC negative, PI positive). Treatment of A549 cells with Ir(III) or Ru(II) complexes leads to a dose-dependent increase in the percentage of cells in each phase (Figure 5).
Cell death was quantified using the AnnexinV-FITC/PI double staining kit (Sigma Aldrich). The cells (1 × 10^5 per well) were cultured overnight in 12-well plates. Then, cells were treated with tested compounds for 24 h. After this time, cells were passaged, collected by centrifugation, and washed twice in Hank’s Balanced Salt Solution (HBBS). The cells were then re-suspended in 500 μL binding buffer and stained with annexin V-FITC and PI according to the manufacturer’s instructions (Sigma Aldrich). Stained A549 cells were then examined using a Guava® easyCyte™ flow cytometer equipped with a 488 nm laser. The obtained data were analyzed using InCyte software (MerckMillipore, Burlington, MA, USA).

A549 cells [2] = test: Intracellular accumulation, fluorescence microscopy; conditions: A549, 5 μM, 24 h
Description: It has been reported that the cellular uptake efficacy of a compound is affected by many factors, such as lipophilicity. Synthesized complexes indicate blue fluorescence. Thus, their detection using fluorescence microscopy is possible. For this purpose, A549 (human lung adenocarcinoma epithelial) cells were incubated with Ir(III) complexes (5 μM) for 24 h and analyzed. Phalloidin was co-incubated with Ir(III) complexes to determine subcellular localization further.
The intracellular accumulation of the compound was assessed in the A549 cell line. Before imaging, cells were seeded on microscopic slides at a density of 1×10^5 cells and were kept at 37 °C with 5% CO2 humidified atmosphere for 24 h. After being washed with fresh medium, the cells were incubated with 5 μM solution of tested compound in cell medium for 24 h. Next, after being washed with HBSS, the cells were fixed for 10 min in 3.8% PFA and incubated with specific intracellular organelle probes: 200 nM Mito-Tracker green, 1 μg/mL Quinacrine, and 0.25 nM of PhalloidinAtto 488 (Molecular Probes, Invitrogen Life Technologies; Thermo Fisher Scientific, Waltham, MA, USA), diluted in HBSS buffer. After 30 min incubation, at 37 °C, in the dark, the cells were washed with HBSS two times, and the slide was transferred to the microscope stage and cells were visualized under a fluorescent Zeiss Axio Observer microscope. Registered images were analyzed with the Zeiss ZEN software.

A549 cells [3] = test: Cell cycle analysis by PI staining, flow cytometry; conditions: synchronized A549, various concentrations, 24 h
Description: Antitumor drugs induce cell cycle arrest by inhibiting DNA synthesis and enhancing DNA damage, ultimately leading cancer cells to apoptosis. We further studied the influence of Ir(III) and Ru(II) complexes on cell cycle distribution. Synchronized A549 cells were treated with Ir(III) (1a, 2a) or Ru(II) (1b, 2b) at various concentrations for 24 h. Cells were stained with propidium iodide (PI) and analyzed by flow cytometry. […] An arrest in S-phase implies that the cell cannot duplicate its DNA. Other authors recently reported a similar effect for iridium(III)polypyridyl complexes. Moreover, the percentage of the G2/M population also increases. However, higher doses (>10 μM) of Ir(III) complexes can enhance G0/G1-phase arrest.
The serum starvation protocol was used to synchronize cell cultures. A549 cells were seeded in a 12-well plate in a growth medium with 20% FBS overnight. Then, the cultures were washed by PBS and changed to a serum-free medium. After serum starvation for 24 h, cells were released into the cell cycle by the addition of serum and tested compounds solution for 24 h. The cells were then detached from the plate using trypsin. […] Cells were analyzed with the Guava® easyCyte™ flow cytometer equipped with a 488 nm laser. The obtained data were analyzed using InCyte Software (MerckMillipore, Burlington, MA, USA).

Compound | IC50 (Du-145 cells; 24 h) | IC50 (Du-145 cells; 48 h) | IC50 (Du-145 cells; 72 h) | late apoptotic cells (upper right quadrant) (A549 cells [1]) | penetration into cells (A549 cells [2]) | subcellular localization (A549 cells [2]) | cell cycle perturbations (A549 cells [3])
Ru(η^6-p-cymene)Cl2Ph2PCH2N(CH2CH3)2 [1b] | 122 ± 11 µM | 126 ± 12 µM | 23 ± 2 µM | 30% | can penetrate A549 cells | localize mainly in nuclei | concentration-dependent cell cycle perturbations
CCN(CC)C[P+](c1ccccc1)(c1ccccc1)[Ir-3]([Cl])([Cl])[C]1(C)C(C)=C(C)C(C)=C1C [1a, Ir(η^5-Cp*)Cl2Ph2PCH2N(CH2CH3)2] | 90 ± 5 µM | 85 ± 9 µM | 19 ± 3 µM |  | can penetrate A549 cells | signal in whole (retain within the cytoplasm) cells with relative higher intensity in the nuclei | concentration-dependent cell cycle perturbations
